Measured values as given in PMC5389348 (Scientific Reports, 2017).
Read-outs that look alike come from different tables or passages of the source.

What was measured:
PDE7A = biological target: T1, PDE7A (Homo sapiens, UniProt Q13946); experiment: PDE enzymatic profile; format: biochemical
T1 construct: purchased Scottish Biochem (Glasgow, Scotland, UK)

PDE1B = biological target: T2, PDE1B (Homo sapiens, UniProt Q01064); experiment: PDE enzymatic profile; format: biochemical
T2 construct: purchased Scottish Biochem (Glasgow, Scotland, UK)
T2 sequence (Q01064 whole entry): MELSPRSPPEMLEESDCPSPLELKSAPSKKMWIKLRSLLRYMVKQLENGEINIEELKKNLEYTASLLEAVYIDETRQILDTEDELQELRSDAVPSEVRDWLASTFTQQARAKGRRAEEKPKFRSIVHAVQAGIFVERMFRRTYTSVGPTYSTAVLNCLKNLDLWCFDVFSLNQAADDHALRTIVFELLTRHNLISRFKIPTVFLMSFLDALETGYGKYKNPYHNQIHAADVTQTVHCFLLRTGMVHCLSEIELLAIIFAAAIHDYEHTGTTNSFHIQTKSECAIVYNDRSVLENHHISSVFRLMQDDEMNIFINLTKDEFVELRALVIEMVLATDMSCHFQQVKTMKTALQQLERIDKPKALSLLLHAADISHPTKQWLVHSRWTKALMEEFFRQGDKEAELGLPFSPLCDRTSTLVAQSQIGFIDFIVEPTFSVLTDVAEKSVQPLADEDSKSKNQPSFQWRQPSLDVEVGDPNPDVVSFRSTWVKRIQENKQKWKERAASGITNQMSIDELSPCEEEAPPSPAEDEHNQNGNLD

PDE2A3 = biological target: T3, PDE2A3 (Homo sapiens, UniProt O00408); experiment: PDE enzymatic profile; format: biochemical; conditions: read-out: GEBR-32a % inhibition, recombinant human PDE expressed in baculovirus, NI = no inhibition
T3 construct: purchased Scottish Biochem (Glasgow, Scotland, UK)

PDE4A1 = biological target: T4, PDE4A1 (Homo sapiens, UniProt P27815); experiment: PDE enzymatic profile; format: biochemical; conditions: read-out: GEBR-32a % inhibition, recombinant human PDE expressed in baculovirus
T4 construct: purchased Scottish Biochem (Glasgow, Scotland, UK); host or cells: baculovirus system

PDE4A4 = biological target: T5, PDE4A4 (Homo sapiens, UniProt P27815); experiment: PDE enzymatic profile; format: biochemical; conditions: read-out: GEBR-32a % inhibition, recombinant human PDE expressed in baculovirus
T5 construct: purchased Scottish Biochem (Glasgow, Scotland, UK); host or cells: baculovirus system

PDE4B1 = biological target: T6, PDE4B1 (Homo sapiens, UniProt Q07343); experiment: PDE enzymatic profile; format: biochemical; conditions: read-out: GEBR-32a % inhibition, recombinant human PDE expressed in baculovirus
T6 construct: purchased Scottish Biochem (Glasgow, Scotland, UK); host or cells: baculovirus system

PDE4B2 = biological target: T7, PDE4B2 (Homo sapiens, UniProt Q07343); experiment: PDE enzymatic profile; format: biochemical; conditions: read-out: GEBR-32a % inhibition, recombinant human PDE expressed in baculovirus
T7 construct: purchased Scottish Biochem (Glasgow, Scotland, UK); host or cells: baculovirus system

PDE4B3 = biological target: T8, PDE4B3 (Homo sapiens, UniProt Q07343); experiment: PDE enzymatic profile; format: biochemical; conditions: read-out: GEBR-32a % inhibition, recombinant human PDE expressed in baculovirus
T8 construct: purchased Scottish Biochem (Glasgow, Scotland, UK); host or cells: baculovirus system

PDE5A1 = biological target: T9, PDE5A1 (Homo sapiens, UniProt O76074); experiment: PDE enzymatic profile; format: biochemical
T9 construct: purchased Scottish Biochem (Glasgow, Scotland, UK)

PDE7B = biological target: T10, PDE7B (Homo sapiens, UniProt Q9NP56); experiment: PDE enzymatic profile; format: biochemical
T10 construct: purchased Scottish Biochem (Glasgow, Scotland, UK)
T10 sequence (Q9NP56 whole entry): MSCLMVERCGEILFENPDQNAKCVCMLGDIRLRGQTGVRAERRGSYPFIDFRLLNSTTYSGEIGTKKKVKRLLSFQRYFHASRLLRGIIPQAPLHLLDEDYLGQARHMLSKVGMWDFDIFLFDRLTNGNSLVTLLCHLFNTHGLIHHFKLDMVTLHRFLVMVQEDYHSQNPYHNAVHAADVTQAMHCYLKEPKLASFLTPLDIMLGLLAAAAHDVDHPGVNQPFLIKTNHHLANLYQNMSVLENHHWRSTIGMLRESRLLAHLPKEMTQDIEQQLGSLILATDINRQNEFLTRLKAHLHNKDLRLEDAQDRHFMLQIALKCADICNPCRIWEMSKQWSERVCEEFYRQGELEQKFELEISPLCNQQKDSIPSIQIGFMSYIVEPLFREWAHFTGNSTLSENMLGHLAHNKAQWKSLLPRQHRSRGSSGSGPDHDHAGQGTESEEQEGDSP

PDE8A1 = biological target: T11, PDE8A1 (Homo sapiens, UniProt O60658); experiment: PDE enzymatic profile; format: biochemical
T11 construct: purchased Scottish Biochem (Glasgow, Scotland, UK)
T11 sequence (O60658 whole entry): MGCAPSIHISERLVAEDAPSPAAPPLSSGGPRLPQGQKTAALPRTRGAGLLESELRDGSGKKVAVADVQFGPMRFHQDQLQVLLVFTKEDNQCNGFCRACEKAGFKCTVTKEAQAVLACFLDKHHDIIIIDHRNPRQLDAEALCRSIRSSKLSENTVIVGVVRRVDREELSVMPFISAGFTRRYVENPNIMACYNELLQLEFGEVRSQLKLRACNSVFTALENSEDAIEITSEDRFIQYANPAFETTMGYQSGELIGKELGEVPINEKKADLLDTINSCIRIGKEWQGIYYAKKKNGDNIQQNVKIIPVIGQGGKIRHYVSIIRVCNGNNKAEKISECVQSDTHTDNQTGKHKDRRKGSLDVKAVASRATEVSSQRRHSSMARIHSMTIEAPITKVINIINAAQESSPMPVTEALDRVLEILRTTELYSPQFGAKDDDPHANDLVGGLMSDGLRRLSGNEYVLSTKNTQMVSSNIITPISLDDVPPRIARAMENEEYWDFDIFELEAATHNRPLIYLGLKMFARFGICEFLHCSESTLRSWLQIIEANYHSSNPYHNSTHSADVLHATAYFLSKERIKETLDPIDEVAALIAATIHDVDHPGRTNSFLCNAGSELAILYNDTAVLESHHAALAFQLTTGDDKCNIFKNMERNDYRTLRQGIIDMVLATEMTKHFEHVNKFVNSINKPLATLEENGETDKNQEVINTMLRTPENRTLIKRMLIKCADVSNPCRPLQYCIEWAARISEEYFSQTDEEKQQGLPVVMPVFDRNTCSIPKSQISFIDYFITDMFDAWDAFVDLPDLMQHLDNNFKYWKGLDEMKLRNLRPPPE

PDE8B1 = biological target: T12, PDE8B1 (Homo sapiens, UniProt O95263); experiment: PDE enzymatic profile; format: biochemical
T12 construct: purchased Scottish Biochem (Glasgow, Scotland, UK)
T12 sequence (O95263 whole entry): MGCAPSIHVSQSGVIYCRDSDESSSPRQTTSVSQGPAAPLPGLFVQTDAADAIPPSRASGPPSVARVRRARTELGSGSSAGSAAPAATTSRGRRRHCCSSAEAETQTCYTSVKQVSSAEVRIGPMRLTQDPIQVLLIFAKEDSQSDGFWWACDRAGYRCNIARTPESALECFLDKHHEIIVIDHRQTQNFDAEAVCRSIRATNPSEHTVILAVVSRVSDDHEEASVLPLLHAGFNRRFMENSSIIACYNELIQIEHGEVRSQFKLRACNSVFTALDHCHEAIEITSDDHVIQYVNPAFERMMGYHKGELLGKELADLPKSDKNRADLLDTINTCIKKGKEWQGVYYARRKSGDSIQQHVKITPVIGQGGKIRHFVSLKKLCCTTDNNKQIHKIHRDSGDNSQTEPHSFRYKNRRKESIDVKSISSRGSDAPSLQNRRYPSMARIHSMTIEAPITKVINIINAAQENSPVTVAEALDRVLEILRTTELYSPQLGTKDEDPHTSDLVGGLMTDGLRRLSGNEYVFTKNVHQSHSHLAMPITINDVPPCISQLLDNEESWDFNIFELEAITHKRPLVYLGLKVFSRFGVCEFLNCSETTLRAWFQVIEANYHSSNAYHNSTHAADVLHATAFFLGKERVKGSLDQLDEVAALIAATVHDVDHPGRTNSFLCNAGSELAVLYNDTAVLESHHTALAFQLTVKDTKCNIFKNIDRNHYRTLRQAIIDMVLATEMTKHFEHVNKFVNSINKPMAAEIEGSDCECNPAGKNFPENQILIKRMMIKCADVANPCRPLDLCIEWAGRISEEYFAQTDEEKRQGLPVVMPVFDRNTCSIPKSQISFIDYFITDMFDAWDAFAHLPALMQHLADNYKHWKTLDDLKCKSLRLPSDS

PDE9A1 = biological target: T13, PDE9A1 (Homo sapiens, UniProt O76083); experiment: PDE enzymatic profile; format: biochemical; conditions: read-out: GEBR-32a % inhibition, recombinant human PDE expressed in baculovirus, NI = no inhibition
T13 construct: purchased Scottish Biochem (Glasgow, Scotland, UK)
T13 sequence (O76083 whole entry): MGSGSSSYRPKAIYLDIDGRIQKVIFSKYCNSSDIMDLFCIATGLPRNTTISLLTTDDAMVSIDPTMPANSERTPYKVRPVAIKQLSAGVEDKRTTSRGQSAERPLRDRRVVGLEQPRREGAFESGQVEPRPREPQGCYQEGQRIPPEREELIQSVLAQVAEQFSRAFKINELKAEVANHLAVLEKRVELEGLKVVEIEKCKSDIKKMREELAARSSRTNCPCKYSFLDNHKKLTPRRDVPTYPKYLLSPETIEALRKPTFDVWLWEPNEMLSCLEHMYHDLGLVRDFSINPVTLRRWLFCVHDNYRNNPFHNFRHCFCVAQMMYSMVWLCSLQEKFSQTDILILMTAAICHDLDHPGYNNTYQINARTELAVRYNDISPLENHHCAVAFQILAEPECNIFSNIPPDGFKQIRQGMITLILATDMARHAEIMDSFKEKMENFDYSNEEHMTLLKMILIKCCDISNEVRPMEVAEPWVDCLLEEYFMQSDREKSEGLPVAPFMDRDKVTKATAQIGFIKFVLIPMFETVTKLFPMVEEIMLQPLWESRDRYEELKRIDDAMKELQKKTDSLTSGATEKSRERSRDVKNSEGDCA

PDE10A1 = biological target: T14, PDE10A1 (Homo sapiens, UniProt Q9Y233); experiment: PDE enzymatic profile; format: biochemical
T14 construct: purchased Scottish Biochem (Glasgow, Scotland, UK)
T14 sequence (Q9Y233 1-779 isoform Q9Y233-1): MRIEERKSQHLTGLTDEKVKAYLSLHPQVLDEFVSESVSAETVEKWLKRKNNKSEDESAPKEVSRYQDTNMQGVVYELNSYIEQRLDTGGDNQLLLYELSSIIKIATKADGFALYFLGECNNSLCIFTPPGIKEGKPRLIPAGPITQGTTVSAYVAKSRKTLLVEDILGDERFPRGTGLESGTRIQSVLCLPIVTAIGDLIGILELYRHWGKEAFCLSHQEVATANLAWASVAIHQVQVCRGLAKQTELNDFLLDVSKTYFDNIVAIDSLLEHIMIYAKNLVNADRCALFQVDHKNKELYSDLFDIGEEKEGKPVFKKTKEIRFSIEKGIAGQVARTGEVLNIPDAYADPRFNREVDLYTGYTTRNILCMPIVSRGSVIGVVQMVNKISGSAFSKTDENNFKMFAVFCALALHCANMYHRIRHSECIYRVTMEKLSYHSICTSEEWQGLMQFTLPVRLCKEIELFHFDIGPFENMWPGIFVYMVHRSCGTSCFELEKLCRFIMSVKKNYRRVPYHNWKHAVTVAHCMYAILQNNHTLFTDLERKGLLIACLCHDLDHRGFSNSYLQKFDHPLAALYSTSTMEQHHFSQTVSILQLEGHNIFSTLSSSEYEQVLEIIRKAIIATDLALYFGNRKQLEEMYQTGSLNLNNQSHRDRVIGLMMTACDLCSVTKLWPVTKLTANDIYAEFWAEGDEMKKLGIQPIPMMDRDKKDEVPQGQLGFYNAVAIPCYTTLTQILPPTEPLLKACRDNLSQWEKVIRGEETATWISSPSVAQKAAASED

PDE11A1 = biological target: T15, PDE11A1 (Homo sapiens, UniProt Q9HCR9); experiment: PDE enzymatic profile; format: biochemical; conditions: read-out: GEBR-32a % inhibition, recombinant human PDE expressed in baculovirus, NI = no inhibition
T15 construct: purchased Scottish Biochem (Glasgow, Scotland, UK)
T15 sequence (Q9HCR9 445-933): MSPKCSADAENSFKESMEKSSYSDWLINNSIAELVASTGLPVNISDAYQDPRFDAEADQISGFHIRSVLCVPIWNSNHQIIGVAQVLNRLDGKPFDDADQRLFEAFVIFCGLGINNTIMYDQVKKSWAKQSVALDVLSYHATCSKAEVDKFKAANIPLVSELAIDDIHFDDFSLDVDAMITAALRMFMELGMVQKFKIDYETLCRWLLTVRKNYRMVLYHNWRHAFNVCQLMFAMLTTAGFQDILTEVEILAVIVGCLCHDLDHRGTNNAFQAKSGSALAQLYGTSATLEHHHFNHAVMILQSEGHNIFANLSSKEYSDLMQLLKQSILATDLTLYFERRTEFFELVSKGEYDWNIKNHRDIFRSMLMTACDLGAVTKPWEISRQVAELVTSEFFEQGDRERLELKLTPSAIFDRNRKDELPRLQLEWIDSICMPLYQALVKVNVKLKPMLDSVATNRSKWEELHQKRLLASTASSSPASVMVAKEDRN

HTLA cells [1] = experiment: cAMP determination in cultured cells; format: cell-based, human; conditions: 100 μM
Description: The cells used in this study (human neuroblastoma cell line HTLA-230, HTLA) were grown in Roswell Park Memorial Institute medium (RPMI), with 0.1 mM non-essential aminoacids and 10% fetal bovine serum. At the end of treatments, intracellular cAMP was measured with the DetectX® Direct Cyclic AMP Enzyme Immunoassay Kit (Arbor Assay, MI, USA), following the manufacturer’s protocol.
(§1) Results from cells and slices are presented as fold increase and represent mean ± S.E.M. of the number of experiments reported in the figure legend. Normal distribution was evaluated by Kolmogorov–Smirnov test and then data have been analysed by one-way ANOVA followed by Newman-Keuls or Dunnett’s tests, as appropriate.

rat hippocampal slices = experiment: cAMP determination in hippocampal slices; format: cell-based; conditions: forskolin 0.1 μM
Description: Hippocampal slices (400 μm thick) were obtained from adult Sprague Dawley rats using a McIlwain tissue chopper and pre-incubated in physiological medium[52] […] Finally, slices were left in hot medium (90 °C) for 15 min, sonicated and centrifuged at 10000 g for 15 min. The supernatant was used for cAMP determination, using the same kit as above, and the pellet for protein quantification.
as §1

HTLA cells [2] = experiment: Cytotoxicity, lactate dehydrogenase release; format: cell-based, human; conditions: 100 μM, 24 hours
Description: (§2) At the end of the incubation period, lactate-dehydrogenase release was measured in conditioned media using the Cytoxicity Detection Kit^PLUS (Roche, Germany) according to manufacturer protocols.

HTLA cells [3] = experiment: Genotoxicity, phosphorylation of histone H2A.X (Western blot); format: cell-based, human; conditions: 100 μM, 24 hours
Description: as §2
To evaluate genotoxicity, cells were processed for total protein extraction as described previously. Immunoblots were done according to standard methods, using the following antibodies: mouse monoclonal to gamma H2A.X (2F3, phospho S139) and rabbit polyclonal to Histone H2A.X (Abcam, UK); anti-mouse and anti-rabbit secondary antibodies coupled to horseradish peroxidase (GE Healthcare, UK). Proteins were visualized with an enzyme-linked chemiluminescence detection kit according to the manufacturer’s instructions (GE Healthcare). Chemiluminescence was monitored by exposure to films and signals were analyzed under non-saturating condition with an image densitometer (Bio-Rad, CA, USA).

mice [4] = experiment: Ketamine/xylazine induced α2-adrenoceptor-mediated anaesthesia test (emetic-like effect); format: in vivo, mouse; conditions: 0.003–3 mg/kg s.c., adult mice
Description: The outcome measurement was the total time the animals were anesthetized, measured from anaesthesia induction to the righting reflex (i.e. when mice were back on all four paws). In order to reduce the number of animals for experimentation and to get sufficient group sizes, the experiments were performed three times with 2 recovery days in between. […] Normal distribution of data was evaluated by Kolmogorov–Smirnov and one-way ANOVA was used to compare all conditions.

[5] = Pharmacokinetic analysis, plasma and brain; format: in vivo; conditions: male, mouse
Description: For blood analysis, 25 μL of plasma were transferred into a 1.5 mL Eppendorf tube and were added with 25 μL of methanol and 25 μL of internal standard (500 ng/mL voriconazole), followed by the addition of 100 μL methanol. As for brains, 100 mg of tissue were placed into a plastic tube and added with 500 μL of methanol to facilitate homogenization, which was carried out using a Fluko F6/10 superfine homogenizer for approximately 1 min. […] A 25 μL aliquot of the homogenized samples was transferred into an Eppendorf tube and added with 20 μL of internal standard (500 ng/mL voriconazole) followed by the addition of 100 μL of methanol. […] AUC0-t: the area under the plasma/brain concentration versus time curve from time 0 to the last measurable concentration was calculated by using the linear trapezoidal rule. Cmax: the maximum observed plasma concentration.

WT and Tg2576 mice = experiment: Y-maze continuous alternation task; format: in vivo, mouse
Description: The apparatus was made of grey Plexiglas with three arms symmetrically placed together at a 120° angle. At the beginning of the trial, each mouse was placed in one of three arms (randomly divided and balanced) and was then allowed to freely explore the apparatus for 6 minutes. The number of entries into a different arm and the order was measured. An entry was only counted if all four paws of the animal were placed completely inside the arm. When a mouse visited all 3 arms consecutively, it made a triad. In between trials, the apparatus was cleaned with a 70% ethanol solution to avoid olfactory cues. […] Of note, there was no statistical difference between testing sessions (day effect; data not shown) and, therefore, both test sessions were pooled. To measure spatial working memory, the percentage of alternations was calculated by taking the number of triads and dividing it through the maximum possible alternations (total entries minus 2) and multiply this by 100. A score of 50% alternations is considered chance level and, therefore, a significant difference from 50% is indicative of functional working memory. Normal distribution of data was evaluated by Kolmogorov–Smirnov and one-way ANOVA was performed to evaluate differences between the conditions. For each condition, one-sample t-test was used for comparison versus the score of 50%.

aged WT and Tg2576 mice = experiment: Hippocampal long-term potentiation, fEPSP recordings in slices of chronically treated mice; format: in vivo, mouse; conditions: chronic 0.03 mg/kg for 23 days
Description: Electrophysiological recordings have been carried out as previously described. […] A concentric bipolar platinum-iridium stimulation electrode and a low-resistance glass recording microelectrode filled with saline solution ([…]) were placed in CA1 stratum radiatum to record the extracellular field excitatory postsynaptic potential (fEPSP). Basal synaptic transmission was assayed by plotting the stimulus voltages against slopes of fEPSP.

mice [6] = system: mice; set-up: method as in PMID 21649644; conditions: 0.03 and 0.3 mg/kg; same experimental conditions; cited from earlier work
[7] = cited from earlier work
HTLA cells [8] = system: HTLA cells; set-up: method as in PMID 27560284; conditions: 100 μM; same experimental conditions; cited from earlier work
[9] = set-up: method as in PMID 27560284; conditions: parent compound; cited from earlier work
[10] = read-out: GEBR-32a % inhibition
[11] = read-out: GEBR-32a % inhibition, 10 μM, recombinant human PDE expressed in baculovirus
[12] = sc, brain, 10 mg/kg s.c., BALB/c mice
[13] = sc, plasma, 10 mg/kg s.c., BALB/c mice
[14] = Dipyridamole 50 μM, read-out: Comparator % inhibition

T1 sequence (Q13946 whole entry): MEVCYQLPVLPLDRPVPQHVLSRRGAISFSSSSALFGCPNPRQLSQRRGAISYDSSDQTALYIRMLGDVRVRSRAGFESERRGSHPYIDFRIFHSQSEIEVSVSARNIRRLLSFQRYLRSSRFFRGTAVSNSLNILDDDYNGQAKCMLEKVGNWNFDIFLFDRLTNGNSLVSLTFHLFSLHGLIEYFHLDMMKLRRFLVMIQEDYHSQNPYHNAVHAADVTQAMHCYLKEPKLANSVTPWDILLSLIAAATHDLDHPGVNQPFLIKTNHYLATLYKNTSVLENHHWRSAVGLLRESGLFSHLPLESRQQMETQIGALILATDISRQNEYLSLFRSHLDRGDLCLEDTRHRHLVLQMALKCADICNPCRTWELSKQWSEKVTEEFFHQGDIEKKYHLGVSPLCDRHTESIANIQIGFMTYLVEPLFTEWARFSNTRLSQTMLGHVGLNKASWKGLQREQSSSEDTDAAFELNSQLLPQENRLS

Cc1ccc([N+](=O)[O-])cc1S(=O)(=O)N(C)C [BRL-50481, reference compound]
Comparator % inhibition (PDE7A; BRL-50481 10 μM): 78.6 (BRL-50481 10 μM) %

OC(CN1CCOCC1)Cn1ccc(-c2ccc(OC(F)F)c(OC3CCCC3)c2)n1 (centres unmarked) [GEBR-32a]
inhibition at 10 µM (PDE1B; [10]): 10.7%
inhibition at 10 µM (PDE2A3): < 0%
inhibition at 10 µM (PDE4A1): 41%
inhibition at 10 µM (PDE4A4): 11%
inhibition at 10 µM (PDE4B1): 41.6%
inhibition at 10 µM (PDE4B2): 26.3%
inhibition at 10 µM (PDE4B3): 39.4%
inhibition at 10 µM (PDE5A1; [11]): 4.97%
inhibition at 10 µM (PDE7A; read-out: GEBR-32a % inhibition, 10 μM, recombinant human PDE expressed in baculovirus, NI = no inhibition): < 0%
inhibition at 10 µM (PDE7B; [11]): 8.61%
inhibition at 10 µM (PDE8A1; [10]): < 0%
inhibition at 10 µM (PDE8B1; [11]): 23.5%
inhibition at 10 µM (PDE9A1): < 0%
inhibition at 10 µM (PDE10A1; [10]): < 0%
inhibition at 10 µM (PDE11A1): < 0%
increase of the forskolin-induced elevation of cAMP in cultured cells (HTLA cells [1]; forskolin 1 μM): 12 fold
increase of cAMP with respect to controls (HTLA cells [1]; without forskolin): 2.5 fold
EC50 (rat hippocampal slices; Rattus norvegicus, 0.1–100 μM, read-out: apparent EC50, increase of forskolin-induced cAMP production): 1800 nM
elevation of forskolin-induced cAMP production (rat hippocampal slices; highest concentration tested (100 μM)): 4 fold
cytotoxicity, lactate dehydrogenase release (HTLA cells [2]): did not produce any significant effect
genotoxicity, phosphorylation of histone H2A.X (HTLA cells [3]): did not produce any significant effect
duration of anaesthesia (emetic-like effect) (mice [4]): did not significantly influence the duration of anaesthesia
Tmax ([5]; BALB/c, plasma and brain, subcutaneous, 10 mg/kg, absorption and distribution to the brain): 20 min
half-life ([5]; BALB/c, plasma and brain, subcutaneous, 10 mg/kg, elimination, read-out: half-life (converted)): ~60 min
Kp ([5]; in vivo, sc, 10 mg/kg s.c., BALB/c mice, read-out: AUC0-t Ratio (Brain/Plasma)): 2.71
AUC(0-t) [5, 12]: 2330 ng·h/mL
Cmax [5, 12]: 2610 ng/g
Tmax [5, 12]: 19.8 min
half-life ([5]; sc, brain, 10 mg/kg s.c., BALB/c mice, read-out: t1/2 (converted)): 57 min
AUC(0-t) [5, 13]: 861 ng·h/mL
Cmax [5, 13]: 993 ng/mL
Tmax [5, 13]: 19.8 min
half-life ([5]; sc, plasma, 10 mg/kg s.c., BALB/c mice, read-out: t1/2 (converted)): 57 min
percentage of alternations, Y-maze (WT and Tg2576 mice; adult WT mice, administered 30 min before trial, data not shown): not further improved
percentage of alternations, Y-maze (WT and Tg2576 mice; aged Tg2576 mice, acute 0.0003–0.3 mg/kg s.c. 30 min before trial): not able to induce any improvement
percentage of alternations, Y-maze (WT and Tg2576 mice; aged Tg2576 mice, chronic 0.03 mg/kg for up to 23 days): alternations significantly higher than 50%
percentage of alternations, Y-maze (WT and Tg2576 mice; aged WT mice, acute, all doses tested 0.0003–0.3 mg/kg s.c. 30 min before trial): significantly ameliorated the performance
hippocampal LTP (fEPSP) (aged WT and Tg2576 mice; aged Tg2576 mice): rescue the LTP deficit
hippocampal LTP (fEPSP) (aged WT and Tg2576 mice; aged WT mice): clear, though not significant, enhancement of LTP

COc1ccc(C2CNC(=O)C2)cc1OC1CCCC1 (centres unmarked) [Rolipram]
duration of anaesthesia (emetic-like effect) (mice [6]): significantly shortened anaesthesia time

O=C(Nc1c(Cl)cncc1Cl)c1ccc(OC(F)F)c(OCC2CC2)c1 [roflumilast]
brain/plasma ratio [7]: 1

COc1ccc(Cc2nccc3cc(OC)c(OC)cc23)cc1OC [Papaverine, reference compound]
inhibition at 1 µM (PDE10A1; Papaverine 1 μM, read-out: Comparator % inhibition): 90.7%

OCCN(CCO)c1nc(N2CCCCC2)c2nc(N(CCO)CCO)nc(N3CCCCC3)c2n1 [Dipyridamole, reference compound]
inhibition at 50 µM (PDE7B; [14]): 47.3%
inhibition at 50 µM (PDE8A1; [14]): 64.4%
inhibition at 50 µM (PDE8B1; [14]): 57.4%

COc1ccc(-c2ccn(CC(O)CN3CCOCC3)n2)cc1OC1CCCC1 (centres unmarked) [compound 8a]
increase of the forskolin-induced elevation of cAMP in cultured cells (HTLA cells [8]): 4 fold
brain/plasma ratio [9]: 0.76

CCCc1nn(C)c2c(=O)[nH]c(-c3cc(S(=O)(=O)N4CCN(C)CC4)ccc3OCC)nc12 [Sildenafil, reference compound]
inhibition at 10 µM (PDE1B; Sildenafil 10 μM, read-out: Comparator % inhibition): 74.4%
inhibition at 0.1 µM (PDE5A1; read-out: Comparator % inhibition): 74.9%
